Laboratory results published in publication PMC10350920, “Development of a 2,4-Diaminothiazole Series for the Treatment of Human African Trypanosomiasis Highlights the Importance of Static–Cidal Screening of Analogues” (Journal of Medicinal Chemistry, 2023).

What was measured:
[1] = system: BSF T. b. brucei “single marker” S427; test: Drug sensitivity assay with bloodstream-form T. brucei; type: cell-based; details: Trypanosoma brucei; mean values; number of replicates in parentheses
Protocol: (§1) Drug sensitivity assays with BSF T. b. brucei “single marker” S427 and human MRC-5 fibroblasts were conducted as previously described.[43]

[2] = Mammalian cell counter screen (MRC-5); type: cell-based, human; details: human, MRC-5 fibroblasts; mean values; number of replicates in parentheses
Protocol: as §1

[3] = Human microsomal intrinsic clearance; type: in vitro ADME; details: second value of mouse/human cell
[4] = Equilibrium dialysis, free fraction in plasma; type: in vitro ADME, mouse; details: matrix not given; for fraction unbound at 5 h, 10 μg mL^–1: CD1, mouse, plasma, pH 7.4, read-out: Fu (free fraction)
Protocol: In brief, a 96-well equilibrium dialysis apparatus was used to determine the free fraction in plasma and the brain (HT Dialysis LLC, Gales Ferry, CT). Isotonic buffer was prepared using 8.69 g of Na2HPO4, 1.9 g of KH2PO4, and 4.11 g of NaCl dissolved in 1 L of Milli-Q water, and the pH was adjusted to 7.4. Artificial CSF was prepared using 3.652 g of NaCl, 93.2 mg of KCl, 119.96 mg of MgCl2, 92.61 mg of CaCl2, and 268 mg of Na2HPO4 heptahydrate dissolved in 0.5 L of water, and the pH was adjusted to 7.4. Membranes [12–14 (plasma) or 6–9 (brain) kDA cutoff] were conditioned in deionized water for 60 min, followed by conditioning in 80:20 deionized water/ethanol for 20 min, and then rinsed in isotonic buffer (plasma) or […] (brain) before use. Female CD1 mouse plasma was defrosted and centrifuged for 10 min at 3000 rpm (Allegra X12-R, Beckman Coulter, USA). The control mouse brain was homogenized in two volumes of artificial CSF in a Covaris S2 acoustic homogenizer. Plasma or brain homogenate was spiked with the test compound (10 μg mL^–1), and 150 μL aliquots (n = 3 replicate determinations) were loaded into the 96-well equilibrium dialysis plate. Dialysis versus 150 μL of isotonic buffer (plasma) or artificial CSF (brain) was carried out for 5 h in a temperature-controlled incubator at 37 °C (Barworld Scientific Ltd, UK) using an orbital microplate shaker at 125 rpm (Barworld Scientific Ltd, UK). At the end of the incubation period, aliquots of plasma/homogenized brain or buffer were transferred to a clean 96-well plate, and the composition in each well was balanced with control fluid, such that the volume of buffer to the matrix was the same. Sample extraction was performed by the addition of 400 μL of acetonitrile containing an appropriate internal standard. Samples were allowed to mix for 1 min and then centrifuged at 3000 rpm in 96-well blocks for 10 min (Allegra X12-R, Beckman Coulter, USA). All samples were analyzed by means of UPLC/MS/MS on a Quattro Premier XE or Micro TQs mass spectrometer (Waters Corporation, USA). The unbound fraction was determined as the ratio of the peak area in the buffer to that in the matrix.

[5] = Mouse liver microsomal intrinsic clearance; type: in vitro ADME
Protocol: Test compounds (0.5 μM) were incubated with female CD1 mouse liver microsomes (Xenotech LLC; 0.5 mg mL^–1 50 mM potassium phosphate buffer, pH 7.4), and the reaction started with the addition of excess NADPH (8 mg mL^–1 50 mM potassium phosphate buffer, pH 7.4). Immediately, at 0 min, and then at 3, 6, 9, 15, and 30 min, an aliquot (50 μL) of the incubation mixture was removed and mixed with acetonitrile (100 μL) to stop the reaction. The internal standard was added to all samples, the samples were centrifuged to sediment the precipitated protein, and the plates were then sealed prior to UPLC–MS/MS analysis using a Quattro Premier XE (Waters Corporation, USA). XLfit (IDBS, UK) was used to calculate the exponential decay and consequently the rate constant (k) from the ratio of the peak area of the test compound to the internal standard at each time point. The rate of intrinsic clearance (CLint) of each test compound was then calculated using the following calculation [drawing 3] where V (mL mg^–1 protein) is the incubation volume mg^–1 protein added and the microsomal protein yield is taken as 52.5 mg protein g^–1 liver. Verapamil (0.5 μM) was used as a positive control to confirm acceptable assay performance.

human MRC-5 fibroblasts = test: Mammalian cell counter screen (MRC-5); type: cell-based; details: for SI: selectivity index (EC50 MRC5/EC50 T. brucei)
Protocol: as §1

[6] = Mouse brain penetration (brain:blood ratio); type: in vivo, female NMRI mice; details: female, NMRI, mouse, brain and blood, 10 mg kg^–1; mice, bolus of test compound, total compound; read-out: brain/blood (B/B) ratio
Protocol: Medicines for HAT are required to treat both acute and chronic infections, where parasites pass through the blood/brain barrier and enter the CNS. With this in mind, mice were dosed with an […] bolus of our test compounds, and compound concentrations in blood and brain were determined by UPLC–MS/MS. […] The brain fraction unbound was 0.0063 for 16 and 0.0313 for 38. Brain penetration of the series as a whole tracked with the generally accepted rules of CNS penetration, with a lower topological PSA (TPSA) and molecular weight compounds having an increased B/B ratio (Table S2 and Figure S1). However, the link between log P and the B/B ratio was slightly less convincing. […] This difference could be explained by 18 being a substrate for the P-glycoprotein efflux pump.
Each compound was dosed as an IV bolus at 10 mg kg^–1 dissolved in 15% solutol/Milli-Q (dose volume 10 mL kg^–1) to female NMRI mice (n = 3). At 30 min following the IV bolus of the test compound, mice (n = 3/time point) were placed under terminal anesthesia with isoflurane. A blood sample was taken by cardiac puncture and added to two volumes of distilled water, and the brain was removed. […] For each mouse at each time point, the concentration in the brain (ng g^–1) was divided by the concentration in blood (ng mL^–1) to give a brain: blood ratio.

[7] = Kinetic aqueous solubility (laser nephelometry); type: physicochemical; details: Milli-Q water with 2.5% DMSO
Protocol: The kinetic aqueous solubility of the test compounds was measured using laser nephelometry. Compounds were subject to serial dilution from 10 to 0.5 mM in DMSO. An aliquot was then mixed with Milli-Q water to obtain an aqueous dilution plate with a final concentration range of 13–250 μM, with a final DMSO concentration of 2.5%. Triplicate aliquots were transferred to a flat-bottomed polystyrene plate which was immediately read on the NEPHELOstar (BMG Lab Technologies). The amount of laser scatter caused by insoluble particulates (relative nephelometry units, RNUs) was plotted against compound concentration using a segmental regression fit, with the point of inflection being quoted as the compound’s aqueous solubility (μM).

T. brucei RES II = test: Drug sensitivity, compound 38-resistant clone RES II; type: cell-based, T. b. brucei
Protocol: (§2) Drug sensitivity assays were carried out with BSF T. b. brucei “single marker” S427 or BSF T. b. brucei, Lister 427, MiTat 1.2, clone 221a 2T1 cells,[45] cells grown at 37 °C with 5% CO2 in an HMI-9T medium[46] as previously described.[47] 2T1 cells were initially maintained with 1 μg mL^–1 puromycin and 1 μg mL^–1 phleomycin prior to transfection or 2.5 μg mL^–1 hygromycin and 1 μg mL^–1 phleomycin after transfection. Induction of overexpression was achieved by the addition of 1 μg mL^–1 tetracycline to the culture medium.
(§3) Compound-resistant cell lines were generated by subculturing a clone of T. brucei in the continuous presence of 38. Starting at sublethal concentrations, drug concentrations in two independent cultures were increased in a stepwise manner, usually 2-fold. When parasites were able to survive and grow in concentrations of drugs equivalent to more than 10 times the established EC50 value, the resulting cell lines were cloned by limiting dilution in the presence of the compound. Two clones (RES I-II) were selected for further biological study. A standard alkaline lysis protocol was used to isolate genomic DNA from compound-resistant bloodstream T. brucei parasites (∼1 × 10^8). Whole genome sequencing was performed using a DNB-seq next-generation sequencing platform (BGI, Hong Kong). Sequencing reads (150 bp) were aligned to the T. brucei TREU927 genome (v39; tritrypDB) using Bowtie2[48] and Samtools[49] software. […] Samtools and BCFtools[52] (mpileup) were used to call SNP and indels compared with the wild-type starter clone, where the overall quality score (QUAL) was >100. Artemis[50] was used to analyze chromosome and gene copy number variation, as well as visualization of SNPs.

T. brucei wild-type = test: Drug sensitivity, wild-type parental line; type: cell-based, T. b. brucei; details: Trypanosoma brucei; weighted mean of ≥3 independent experiments
Protocol: as §2, §3

T. brucei RES I = test: Drug sensitivity, compound 38-resistant clone RES I; type: cell-based, T. b. brucei
Protocol: as §2, §3

[8] = Rat microsomal intrinsic clearance; type: in vitro ADME; details: second value of mouse/rat cell
[9] = relative to the parental wild-type, in brackets

Compound	EC50 [1]	EC50 [2]	CLint (human) [3]	CLint (mouse) [5]	SI (human MRC-5 fibroblasts)	also measured
Nc1nc(NC2CCCCC2)sc1C(=O)c1ccc(OC(F)F)cc1 [Compound 26, (4-Amino-2-(cyclohexylamino)thiazol-5-yl)(4-(difluoromethoxy)phenyl)methanone]	60 nM	22 µM	0.8 mL·min/g	2.9 mL·min/g	–	Fu (free fraction) [4]: low
Nc1nc(Nc2ccccc2)sc1C(=O)c1ccccc1 [Compound 34, (4-Amino-2-(phenylamino)thiazol-5-yl)(phenyl)methanone]	160 nM	11 µM	< 0.5 mL·min/g	12 mL·min/g	69	selectivity over MRC-5 cell line (human MRC-5 fibroblasts): ~100 fold
CC(C)CC(=O)c1sc(Nc2ccc(F)c(F)c2)nc1N [Compound 37, 1-(4-Amino-2-((3,4-difluorophenyl)amino)thiazol-5-yl)-3-methylbutan-1-one]	200 nM	> 50 µM	3.2 mL·min/g	5.9 mL·min/g	>250	Kp at 30 min [6]: 4.7
CC(OCC(=O)c1sc(Nc2ccn(C)n2)nc1N)C(F)(F)F (stereo not drawn) [Compound 55, 1-(4-Amino-2-((1-methyl-1H-pyrazol-3-yl)amino)thiazol-5-yl)-2-((1,1,1-trifluoropropan-2-yl)oxy)ethan-1-one]	190 nM	9.4 µM	–	10.8 mL·min/g	50	solubility [7]: > 100 µg/mL
Nc1nc(NC2CCCC(O)C2)sc1C(=O)c1c(F)cccc1F (stereo not drawn) [Compound 16B]	948 nM	–	–	1.8 mL·min/g	–	fraction unbound at 5 h, 10 μg mL^–1 [4]: 0.22
CC(OCC(=O)c1sc(Nc2ccc(C(F)(F)F)nc2)nc1N)C(F)(F)F (stereo not drawn) [Compound 56, 1-(4-Amino-2-((6-(trifluoromethyl)pyridine-3-yl)amino)thiazol-5-yl)-2-((1,1,1-trifluoropropan-2-yl)oxy)ethanone]	520 nM	> 50 µM	–	–	96	solubility [7]: > 100 µg/mL
Nc1nc(N[C@H]2CC[C@H](O)CC2)sc1C(=O)c1c(F)cccc1F [Compound 16A]	360 nM	–	–	–	–	fraction unbound at 5 h, 10 μg mL^–1 [4]: 0.39
O=C1Nc2ccc3ncsc3c2/C1=C/Nc1ccc(S(=O)(=O)Nc2ccccn2)cc1 [GW8510]	–	–	–	–	–	EC50 (T. brucei RES II; Trypanosoma brucei, read-out: EC50, RES II): 110 ± 4 nM; fold resistance, RES II (T. brucei RES II; [9]): 1; EC50 (T. brucei wild-type): 120 ± 8 nM; EC50 (T. brucei RES I; Trypanosoma brucei, read-out: EC50, RES I): 65 ± 4 nM; fold resistance, RES I (T. brucei RES I; [9]): 1
CC(OCC(=O)c1sc(Nc2ccc(Cl)cc2)nc1N)C(F)(F)F (stereo not drawn) [Compound 51, 1-(4-Amino-2-((4-chlorophenyl)amino)thiazol-5-yl)-2-((1,1,1-trifluoropropan-2-yl)oxy)ethanone]	8 nM	> 50 µM	–	5.3 mL·min/g	6250	CLint (rat) [8]: 1.7 mL·min/g; Kp at 30 min [6]: 0.9
